Measured values from patent publication US5122515A, “Nutrient composition containing dipeptides and method for administering the same” (priority 1990, dated 1992).

Experiments:
[1] = In vitro clearance of tyrosyl-arginine in human whole blood
Experimental: Supplementation of an intravenous nutrition solution with the dipeptide tyrosyl-arginine facilitates the infusion of the poorly soluble amino acid tyrosine. We have initiated the first investigations into the metabolism of exogenous tyrosyl-arginine (TryArg). In vitro clearance of tyrosyl-arginine, and the constituent amino acids arginine and tyrosine was assessed in blood from two healthy normal volunteers on five occasions. Whole blood was incubated with tyrosyl-arginine (initially 547 nmol/ml) at 37°°C. for 40 minutes. Throughout this period samples were taken to determine concentration of the dipeptide and individual amino acids.

[2] = In vivo clearance of tyrosyl-arginine after intravenous bolus in rats; parameters: species or system Sprague Dawley rats; details: rat
Experimental: In vivo clearance was assessed in five large (370 g) mature (122 days old) Sprague Dawley rats. The animals were anaesthetised with sodium pentabarbitone and remained anaesthetised during the entire procedure. A large bolus of tyrosyl-arginine (82.1 2.8 μg/g rat, Mean SD) was injected intravenously into a central vein and rapid blood samples (n=11) (total volume=2.0 ml) were obtained through a central venous catheter over 20 minutes. We observed that tyrosyl-arginine was cleared rapidly by rats with an approximate half life of 30 seconds. There was a large and rapid rise in Arg concentration reaching a maximum after 2.5 min and falling to baseline levels after 20 minutes.

Compound | time over which the concentration, after its rise, fell to baseline [1] | time of fall to baseline levels ([2]; iv) | time to maximum concentration ([2]; iv) | time by which degradation was complete ([1]; human whole blood, 37°C) | half-life at 547 nmol/ml ([1]; human, blood) | concentration in whole blood (mean) ([1]; time 0 min, human whole blood incubated with tyrosyl-arginine (initially 547 nmol/ml) at 37°C) | concentration in whole blood (mean) ([1]; time 0.5 min, human whole blood incubated with tyrosyl-arginine at 37°C) | concentration in whole blood (mean) ([1]; time 1.0 min, human whole blood incubated with tyrosyl-arginine at 37°C) | concentration in whole blood (mean) ([1]; time 2.0 min, human whole blood incubated with tyrosyl-arginine at 37°C) | concentration in whole blood (mean) ([1]; time 5.0 min, human whole blood incubated with tyrosyl-arginine at 37°C) | concentration in whole blood (mean) ([1]; time 10.0 min, human whole blood incubated with tyrosyl-arginine at 37°C) | concentration in whole blood (mean) ([1]; time 20.0 min, human whole blood incubated with tyrosyl-arginine at 37°C) | concentration in whole blood (mean) ([1]; time 40.0 min, human whole blood incubated with tyrosyl-arginine at 37°C) | concentration in whole blood (mean) ([1]; time 60.0 min, human whole blood incubated with tyrosyl-arginine at 37°C) | concentration in whole blood (mean) ([1]; time 120.0 min, human whole blood incubated with tyrosyl-arginine at 37°C) | half-life ([2]; Sprague Dawley, 82.1 μg/g rat, anaesthetised rats, intravenous bolus of tyrosyl-arginine into a central vein, read-out: approximate half life (in vivo clearance) (converted))
N=C(N)NCCC[C@H](N)C(=O)O [Arg, arginine] | 2 h | 20 min | 2.5 min | – | – | – | – | – | – | – | – | – | – | – | – | –
N[C@@H](Cc1ccc(O)cc1)C(=O)O [Tyr, tyrosine] | 2 h | – | – | – | – | – | – | – | – | – | – | – | – | – | – | –
N=C(N)NCCC[C@H](NC(=O)[C@@H](N)Cc1ccc(O)cc1)C(=O)O [Tyr--Arg, tyrosyl-arginine] | – | – | – | ≤ 2 h | 4.2 min | 547 µM | 389.85 µM | 338.65 µM | 278.94 µM | 245.52 µM | 220.90 µM | 149.77 µM | 547.0 µM | 55.57 µM | 0 µM | ~0.5 min
